The source of these data is US10787450B2 (BRISTOL-MYERS SQUIBB COMPANY, priority 2016, dated 2020).

For orientation: IC50 means the concentration that gives 50% inhibition. Lower therefore signals inhibition by little substance.

ROCK2, sequence (O75116 whole entry, species assumed): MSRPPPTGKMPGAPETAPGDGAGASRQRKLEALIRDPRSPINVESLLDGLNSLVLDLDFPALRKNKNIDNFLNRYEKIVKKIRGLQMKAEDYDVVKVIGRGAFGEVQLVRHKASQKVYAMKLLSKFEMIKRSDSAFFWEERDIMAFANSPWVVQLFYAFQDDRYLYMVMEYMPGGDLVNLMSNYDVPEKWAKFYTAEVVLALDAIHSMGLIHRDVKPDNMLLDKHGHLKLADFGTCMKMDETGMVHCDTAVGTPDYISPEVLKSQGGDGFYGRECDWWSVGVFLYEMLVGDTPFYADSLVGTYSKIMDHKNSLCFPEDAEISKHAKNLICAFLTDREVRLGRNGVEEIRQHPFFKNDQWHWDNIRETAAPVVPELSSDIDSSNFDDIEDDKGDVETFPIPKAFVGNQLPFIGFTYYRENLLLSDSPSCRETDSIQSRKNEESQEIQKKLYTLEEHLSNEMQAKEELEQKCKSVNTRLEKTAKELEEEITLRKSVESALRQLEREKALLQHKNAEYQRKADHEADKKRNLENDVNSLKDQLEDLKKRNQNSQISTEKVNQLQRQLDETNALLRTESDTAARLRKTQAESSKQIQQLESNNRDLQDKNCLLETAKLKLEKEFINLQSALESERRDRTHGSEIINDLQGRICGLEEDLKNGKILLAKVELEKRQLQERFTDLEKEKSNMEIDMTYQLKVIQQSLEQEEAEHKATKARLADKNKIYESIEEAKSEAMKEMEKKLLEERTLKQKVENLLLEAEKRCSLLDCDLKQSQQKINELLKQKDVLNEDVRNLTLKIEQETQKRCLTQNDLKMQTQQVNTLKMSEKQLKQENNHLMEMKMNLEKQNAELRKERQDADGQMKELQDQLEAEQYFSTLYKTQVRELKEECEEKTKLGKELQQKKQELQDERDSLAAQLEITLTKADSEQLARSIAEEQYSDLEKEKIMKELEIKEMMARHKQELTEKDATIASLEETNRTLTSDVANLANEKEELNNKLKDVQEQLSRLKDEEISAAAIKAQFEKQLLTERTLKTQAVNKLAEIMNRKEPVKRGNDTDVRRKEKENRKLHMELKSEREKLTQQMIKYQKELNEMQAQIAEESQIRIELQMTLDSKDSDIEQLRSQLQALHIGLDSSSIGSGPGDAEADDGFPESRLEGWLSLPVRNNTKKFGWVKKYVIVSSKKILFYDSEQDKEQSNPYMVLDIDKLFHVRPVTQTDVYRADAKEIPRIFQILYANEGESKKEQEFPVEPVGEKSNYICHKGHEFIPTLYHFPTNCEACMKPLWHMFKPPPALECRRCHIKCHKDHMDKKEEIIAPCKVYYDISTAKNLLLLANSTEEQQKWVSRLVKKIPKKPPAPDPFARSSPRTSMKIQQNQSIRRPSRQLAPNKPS

The target in this assay is ROCK2 (Homo sapiens (Human), UniProt O75116). Briefly: ROCK2 kinase inhibition assay (FITC peptide substrate, LABCHIP 3000 Reader). It is filed as biochemical. Conditions: 5 μM ATP, 1.5 μM peptide substrate. The method in brief:
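IC50 derived by curve fitting of dose-response inhibition, read as separation of phosphorylated from unphosphorylated FITC peptide (1.5 μM) after EDTA stop. Buffer: HEPES pH 7.5, MgCl2, Brij-35, DTT; ATP 5 μM; final DMSO <2%; reaction initiated by Rho kinase addition.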
In turn, `COc1cccc(CN2C(=O)N(c3ncc(-c4cn[nH]c4)c(OC)n3)CC23CCN(C(=O)[C@@H]2CC2(F)F)CC3)c1` [Example 213, (S)-8-(2,2-difluorocyclopropane-carbonyl)-3-(4-methoxy-5-(1H-pyrazol-4-yl)pyrimidin-2-yl)-1-(3-methoxybenzyl)-1,3,8-triazaspiro[4.5]decan-2-one] registered an IC50 of 3 to 30 nM.

In the case of `COc1cccc(CN2C(=O)N(c3ncc(-c4cn[nH]c4)c(OC)n3)CC23CCN(C(=O)CC(C)C)CC3)c1` [Example 214, 3-(4-methoxy-5-(1H-pyrazol-4-yl)pyrimidin-2-yl)-1-(3-methoxybenzyl)-8-(3-methylbutanoyl)-1,3,8-triazaspiro[4.5]decan-2-one], the IC50 lay in the range of 3 to 30 nM.

The compound `COc1cccc(CN2C(=O)N(c3ncc(-c4cn[nH]c4)c(OC)n3)CC23CCN(C(=O)C(C)C)CC3)c1` [Example 215, 8-isobutyryl-3-(4-methoxy-5-(1H-pyrazol-4-yl)pyrimidin-2-yl)-1-(3-methoxybenzyl)-1,3,8-triazaspiro[4.5]decan-2-one] returned an IC50 of 30 to 250 nM.

Regarding `CCc1nc(N2CC3(CCN(C(=O)C4(O)CC4)CC3)N(Cc3cccc(OC)c3)C2=O)ccc1-c1cn[nH]c1` [Example 216, 3-(6-ethyl-5-(1H-pyrazol-4-yl)pyridin-2-y)-8-(1-hydroxycyclopropanecarbonyl)-1-(3-methoxybenzyl)-1,3,8-triazaspiro[4.5]decan-2-one], the IC50 fell in the range of 3 to 30 nM.

For `CCc1nc(N2CC3(CCN(C(=O)[C@H]4CC4(F)F)CC3)N(Cc3cccc(OC)c3)C2=O)ccc1-c1cn[nH]c1` [Example 217, (R)-8-(2,2-difluorocyclopropane-carbonyl)-3-(6-ethyl-5-(1H-pyrazol-4-yl)pyridin-2-yl)-1-(3-methoxybenzyl)-1,3,8-triazaspiro[4.5]decan-2-one], the IC50 is less than 3 nM.

The compound `COc1cccc(CN2C(=O)N(c3ccc(-c4cn[nH]c4)c(OC)n3)CC23CCN(C(=O)CN(C)C)CC3)c1` [Example 218, 8-(2-(dimethylamino)acetyl)-3-(6-methoxy-5-(1H-pyrazol-4-yl)pyridin-2-yl)-1-(3-methoxybenzyl)-1,3,8-triazaspiro[4.5]decan-2-one] yielded an IC50 of less than 3 nM.

`COCC(=O)N1CCC2(CC1)CN(c1ccc(-c3cn[nH]c3)c(OC)n1)C(=O)N2Cc1cccc(OC)c1` [Example 219, 3-(6-methoxy-5-(1H-pyrazol-4-yl)pyridin-2-yl)-8-(2-methoxyacetyl)-1-(3-methoxybenzyl)-1,3,8-triazaspiro[4.5]decan-2-one]: the IC50 is less than 3 nM.

With `COc1cccc(CN2C(=O)N(c3ccc(-c4cn[nH]c4)c(OC)n3)CC23CCN(C(=O)CO)CC3)c1` [Example 220, 8-(2-hydroxyacetyl)-3-(6-methoxy-5-(1H-pyrazol-4-yl)pyridin-2-yl)-1-(3-methoxybenzyl)-1,3,8-triazaspiro[4.5]decan-2-one], the IC50 is less than 3 nM.

With `COc1cccc(CN2C(=O)N(c3ccc(-c4cn[nH]c4)c(OC)n3)CC23CCN(C(=O)C(C)O)CC3)c1` (stereo not shown) [Example 221, 8-(2-hydroxypropanoyl)-3-(6-methoxy-5-(1H-pyrazol-4-yl)pyridin-2-yl)-1-(3-methoxybenzyl)-1,3,8-triazaspiro[4.5]decan-2-one], the IC50 is less than 3 nM.

Compound `COc1cccc(CN2C(=O)N(c3ccc(-c4cn[nH]c4)c(OC)n3)CC23CCN(C(=O)C(C)(C)O)CC3)c1` [Example 222, 8-(2-hydroxy-2-methylpropanoyl)-3-(6-methoxy-5-(1H-pyrazol-4-yl)pyridin-2-yl)-1-(3-methoxybenzyl)-1,3,8-triazaspiro[4.5]decan-2-one] showed an IC50 of less than 3 nM.

For `COc1cccc(CN2C(=O)N(c3ccc(-c4cn[nH]c4)c(OC)n3)CC23CCN(C(=O)C2COC2)CC3)c1` [Example 223, 3-(6-methoxy-5-(1H-pyrazol-4-yl)pyridin-2-yl)-1-(3-methoxybenzyl)-8-(oxetane-3-carbonyl)-1,3,8-triazaspiro[4.5]decan-2-one], the IC50 is less than 3 nM.

`COc1nc(N2CC3(CCN(C(=O)CC(C)c4ccccc4)CC3)N(Cc3cccc(F)c3C)C2=O)ccc1-c1cn[nH]c1` (stereo not shown) [Example 224, 1-(3-fluoro-2-methylbenzyl)-3-(6-methoxy-5-(1H-pyrazol-4-yl)pyridin-2-yl)-8-(3-phenylbutanoyl)-1,3,8-triazaspiro[4.5]decan-2-one] yielded an IC50 of 3 to 30 nM.

`COc1nc(N2CC3(CCN(C(=O)CN(C)C)CC3)N(Cc3cccc(F)c3C)C2=O)ccc1-c1cn[nH]c1` [Example 225, 8-(2-(dimethylamino)acetyl)-1-(3-fluoro-2-methylbenzyl)-3-(6-methoxy-5-(1H-pyrazol-4-yl)pyridin-2-yl)-1,3,8-triazaspiro[4.5]decan-2-one] returned an IC50 of less than 3 nM.

As for `COCC(=O)N1CCC2(CC1)CN(c1ccc(-c3cn[nH]c3)c(OC)n1)C(=O)N2Cc1cccc(F)c1C` [Example 226, 1-(3-fluoro-2-methylbenzyl)-3-(6-methoxy-5-(1H-pyrazol-4-yl)pyridin-2-yl)-8-(2-methoxyacetyl)-1,3,8-triazaspiro[4.5]decan-2-one], the IC50 was less than 3 nM.

In turn, `COc1nc(N2CC3(CCN(C(=O)CCN4CCCC4=O)CC3)N(Cc3cccc(F)c3C)C2=O)ccc1-c1cn[nH]c1` [Example 227, 1-(3-fluoro-2-methylbenzyl)-3-(6-methoxy-5-(1H-pyrazol-4-yl)pyridin-2-yl)-8-(3-(2-oxopyrrolidin-1-yl)propanoyl)-1,3,8-triazaspiro[4.5]decan-2-one] yielded an IC50 of less than 3 nM.

In turn, `COc1nc(N2CC3(CCN(C(=O)C(C)(C)CO)CC3)N(Cc3cccc(F)c3C)C2=O)ccc1-c1cn[nH]c1` [Example 228, 1-(3-fluoro-2-methylbenzyl)-8-(3-hydroxy-2,2-dimethylpropanoyl)-3-(6-methoxy-5-(1H-pyrazol-4-yl)pyridin-2-yl)-1,3,8-triazaspiro[4.5]decan-2-one] registered an IC50 of less than 3 nM.

As for `COc1nc(N2CC3(CCN(C(=O)CO)CC3)N(Cc3cccc(F)c3C)C2=O)ccc1-c1cn[nH]c1` [Example 229, 1-(3-fluoro-2-methylbenzyl)-8-(2-hydroxyacetyl)-3-(6-methoxy-5-(1H-pyrazol-4-yl)pyridin-2-yl)-1,3,8-triazaspiro[4.5]decan-2-one], the IC50 is less than 3 nM.

Consider `COc1nc(N2CC3(CCN(C(=O)C(C)(C)O)CC3)N(Cc3cccc(F)c3C)C2=O)ccc1-c1cn[nH]c1` [Example 230, 1-(3-fluoro-2-methylbenzyl)-8-(2-hydroxy-2-methylpropanoyl)-3-(6-methoxy-5-(1H-pyrazol-4-yl)pyridin-2-yl)-1,3,8-triazaspiro[4.5]decan-2-one], for which the IC50 was less than 3 nM.

Consider `COc1cccc(CN2C(=O)N(c3ccc(-c4cn[nH]c4)cc3)CC23CCN(CC2CCC(F)(F)CC2)CC3)c1` [Example 231, 3-(4-(1H-pyrazol-4-yl)phenyl)-8-((4,4-difluorocyclohexyl)methyl)-1-(3-methoxybenzyl)-1,3,8-triazaspiro[4.5]decan-2-one], for which the IC50 was less than 3 nM.

The compound `COc1cccc(CN2C(=O)N(c3ccc(-c4cn[nH]c4)cc3)CC23CCN(CC2CCC2)CC3)c1` [Example 232, 3-(4-(1H-pyrazol-4-yl)phenyl)-8-(cyclobutyl-methyl)-1-(3-methoxy-benzyl)-1,3,8-triazaspiro [4.5]decan-2-one] came in with an IC50 of less than 3 nM.

Compound `COc1cccc(CN2C(=O)N(c3ccc(-c4cn[nH]c4)cc3)CC23CCN(CC2CCOCC2)CC3)c1` [Example 233, 3-(4-(1H-pyrazol-4-yl)phenyl)-1-(3-methoxy-benzyl)-8-((tetrahydro-2H-pyran-4-yl)methyl)-1,3,8-triazaspiro [4.5]decan-2-one] gave an IC50 of less than 3 nM.

In turn, `COc1cccc(CN2C(=O)N(c3ccc(-c4cn[nH]c4)cc3)CC23CCN(S(C)(=O)=O)CC3)c1` [Example 234, 3-(4-(1H-pyrazol-4-yl)phenyl)-1-(3-methoxybenzyl)-8-(methylsulfonyl)-1,3,8-triazaspiro[4.5]decan-2-one] showed an IC50 of less than 3 nM.

The compound `COc1cccc(CN2C(=O)N(c3ccc(-c4cn[nH]c4)cc3)CC23CCN(C2COC2)CC3)c1` [Example 235, 3-(4-(1H-pyrazol-4-yl)phenyl)-1-(3-methoxybenzyl)-8-(oxetan-3-yl)-1,3,8-triazaspiro[4.5]decan-2-one] registered an IC50 of less than 3 nM.

`COc1cc(F)cc(CN2C(=O)N(c3ccc(-c4cn[nH]c4)cc3)CC23CCN(C2COC2)CC3)c1` [Example 236, 3-(4-(1H-pyrazol-4-yl)phenyl)-1-(3-fluoro-5-methoxy-benzyl)-8-(oxetan-3-yl)-1,3,8-triazaspiro [4.5]decan-2-one] came in with a half-inhibitory concentration (IC50) of less than 3 nM.

`COc1cccc(CN2C(=O)N(c3ccc(-c4cn[nH]c4)cn3)CC23CCN(C2COC2)CC3)c1` [Example 237, 3-(5-(1H-pyrazol-4-yl)pyridin-2-yl)-1-(3-methoxy-benzyl)-8-(oxetan-3-yl)-1,3,8-triazaspiro [4.5]decan-2-one] had an IC50 of less than 3 nM.

Consider `COc1cccc(CN2C(=O)N(c3ccc(-c4cn[nH]c4)c(OC)n3)CC23CCN(C2COC2)CC3)c1` [Example 238, 3-(6-methoxy-5-(1H-pyrazol-4-yl)pyridin-2-yl)-1-(3-methoxy-benzyl)-8-(oxetan-3-yl)-1,3,8-triazaspiro [4.5]decan-2-one], for which the IC50 was less than 3 nM.

Turning to `COc1nc(N2CC3(CCN(C4COC4)CC3)N(Cc3cccc(F)c3C)C2=O)ccc1-c1cn[nH]c1` [Example 239, 1-(3-fluoro-2-methyl-benzyl)-3-(6-methoxy-5-(1H-pyrazol-4-yl)pyridin-2-yl)-8-(oxetan-3-yl)-1,3,8-triazaspiro [4.5]decan-2-one], the IC50 is less than 3 nM.

As to `COc1cccc(NC2C(=O)N(c3ccc(-c4cn[nH]c4)cc3)CC23CN(C(=O)OC(C)(C)C)C3)c1` (stereo not shown) [Example 240, tert-butyl 6-(4-(1H-pyrazol-4-yl)phenyl)-8-((3-methoxyphenyl)amino)-7-oxo-2,6-diazaspiro[3.4]octane-2-carboxylate], the IC50 lay in the range of 30 to 250 nM.
